Data from patent publication US20100210575A1, “STRUCTURING EFFECT OF CHOLESTEROL IN PEG-PHOSPHOLIPID MICELLES, DRUG DELIVERY OF AMPHOTERICIN B, AND COMBINATION ANTIFUNGALS” (WISCONSIN ALUMNI RESEARCH FOUNDATION, priority 2007, published 2010).

Experiments:
[1] = AmB release from PEG-DSPE micelles using equilibrium dialysis; assay type: physicochemical; conditions: 25° C., 30 μg/mL AmB
Protocol: AmB release from PEG-DSPE micelles using equilibrium dialysis. AmB stock solutions (micelle encapsulated or dissolved in DMSO) were diluted to 30 μg/mL in HEPES buffer or in 4% BSA. These solutions were put in dialysis cassettes (MWCO 7000 g/mol, Pierce) and were placed in excess buffer (5 mM HEPES, pH 7.0). The MWCO of the dialysis membrane was chosen to allow for diffusion of AmB (molecular weight 924.1) while retaining large molecules such as bovine serum albumin (molecular weight 66 kDa) and intact micelles (molecular weight >100 kDa). Near-sink conditions for AmB were maintained by performing the release experiment in a 100-fold excess dialysis buffer. Because AmB is susceptible to degradation, the dialysis buffer was degassed overnight and 20 μg/mL propyl gallate was added as an antioxidant (15, 16). At predetermined time intervals, 100 μL samples were taken and AmB concentration in dialysis cassettes was determined using reversed-phase HPLC. […]
AmB release was fit to a first-order process of the form At/A0=a.e^−k.t by non-linear regression (SigmaPlot v.9.0). […] The half-life t1/2 for AmB release was calculated using t1/2=0.693/k.
For determination of AmB content, 15 μL samples were injected into 4.6 mm×150 mm Eclipse XDB-C8 reversed-phase column (Agilent Technologies) and AmB absorbance detected at 412 nm using the diode array detector. […]

[2] = molecular target: 4% BSA (Bos taurus, UniProt P02769); experiment: Electronic absorption kinetics at 412 nm upon dilution in serum albumin; assay type: physicochemical, bovine; conditions: AmB 10 μg/mL
Protocol: Electronic absorption kinetics. Stock solutions containing AmB (micelle encapsulated or dissolved in DMSO) were added to 4% BSA, buffered to pH 7.0 with 10 mM HEPES. The final concentration of AmB was 10 μg/mL. For AmB dissolved in DMSO, the final DMSO content was less than 0.2%. Absorbance spectra were recorded from 300 to 450 nm at room temperature by using the Cary 50 spectrophotometer (Varian, Palo Alto, Calif.). Sequential spectra were acquired at 15 second intervals for the first 5 min; and at 1 minute intervals for an additional 40 minutes. A scan for baseline absorbance was taken before addition of AmB and was subtracted from each spectrum. The change in absorbance at 412 nm, […] was fit to a first-order process of the form A∞−At=a.e^−k.t using non-linear regression (SigmaPlot v.9.0).

[3] = Critical aggregation concentration (CAC) of AmB; assay type: physicochemical
[4] = tested on: C. albicans 98-17 and C. albicans 98-234; experiment: In vitro susceptibility, broth microdilution, both isolates; assay type: cell-based; conditions: Candida albicans
Protocol: (§1) C. albicans 98-17 and C. albicans 98-234 were maintained on SDA plates. Susceptibility of yeast isolates was performed using broth microdilution in RPMI-1640 (supplemented with 0.165 M morpholinepropanesulfonic acid, buffered to pH 7.0) according to procedures recommended in NCCLS M27-A2 (25). Test drug solutions were incubated with yeast inoculum at 35° C. in 96-well plates for a 24 h period. All measurements were done in triplicate. Percent yeast growth relative to drug-free control was determined by measuring optical density (OD) at 650 nm, using the Microplate EL 312e plate reader. […] The MIC values were expressed as a mean of three determinations.
(§2) Calculation of a combination index was done in two steps. First, inhibition of fungal growth in response to varying concentrations of single-drug was fit to median-effect function:
(§3) where fa is the mean growth inhibition, relative to drug-free control, Dm is the drug concentration for a 50% growth inhibition, and m is the slope-factor describing the dose-response curve. Parameter Dm and m for each drug were estimated by non-linear regression using SigmaPlot (v. 9.0).

[5] = tested on: C. albicans 98-17; experiment: In vitro susceptibility, broth microdilution (MIC, median-effect fit); assay type: cell-based; conditions: Candida albicans, 9817, strain 98-17
Protocol: as §1, §2, §3

[6] = tested on: C. albicans 98-234; experiment: as above; assay type: cell-based; conditions: Candida albicans, 98234, strain 98-234
Protocol: as §1, §2, §3

[7] = >95% inhibition, 24 h, 35° C., read-out: Minimum Inhibitory Concentrations (MIC)
[8] = median-effect fit, read-out: Dm × 10^3 (concentration for 50% growth inhibition)

Chain of 4% BSA (P02769 25-607): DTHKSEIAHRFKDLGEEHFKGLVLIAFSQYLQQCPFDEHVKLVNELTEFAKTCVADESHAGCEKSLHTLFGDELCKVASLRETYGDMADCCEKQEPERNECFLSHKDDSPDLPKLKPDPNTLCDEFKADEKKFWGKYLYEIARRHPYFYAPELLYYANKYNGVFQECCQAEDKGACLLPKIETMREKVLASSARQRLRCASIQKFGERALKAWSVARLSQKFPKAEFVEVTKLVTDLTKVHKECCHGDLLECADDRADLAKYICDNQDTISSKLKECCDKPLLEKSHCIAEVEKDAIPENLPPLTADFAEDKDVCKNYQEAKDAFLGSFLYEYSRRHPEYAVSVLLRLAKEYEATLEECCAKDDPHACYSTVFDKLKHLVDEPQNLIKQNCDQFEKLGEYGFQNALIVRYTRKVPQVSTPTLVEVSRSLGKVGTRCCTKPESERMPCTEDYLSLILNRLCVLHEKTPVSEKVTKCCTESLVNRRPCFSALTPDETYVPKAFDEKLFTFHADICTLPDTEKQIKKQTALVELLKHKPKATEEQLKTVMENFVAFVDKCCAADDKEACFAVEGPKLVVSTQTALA

Row | A∞ (absorbance at 412 nm) [2] | 100 k (absorbance change at 412 nm) ([2]; room temperature) [min⁻¹] | CAC ([3]; in 4% BSA) [µM] | CAC ([3]; in HEPES) [μMA] | MIC ([4]; both isolates, 24 h) [µg/mL] | IC50 ([4]; range over isolates, read-out: Dm) [µg/mL] | MIC [5, 7] [µg/mL] | IC50 [5, 8] [µg/mL] | MIC [6, 7] [µg/mL] | IC50 [6, 8] [µg/mL] | Compound | 100 · k (AmB release, first-order fit) ([1]; 5 mM HEPES) [h⁻¹] | 100 · k (AmB release, first-order fit) ([1]; 4% BSA) [h⁻¹]
1 | 0.77 | 3.25 ± 0.23 | 10 | 1 |  |  |  |  |  |  | C[C@@H]1[C@H](O)[C@@H](C)/C=C/C=C/C=C/C=C/C=C/C=C/C=C/[C@H](O[C@@H]2O[C@H](C)[C@@H](O)[C@H](N)[C@@H]2O)C[C@@H]2O[C@](O)(C[C@@H](O)C[C@@H](O)[C@H](O)CC[C@@H](O)C[C@@H](O)CC(=O)O[C@H]1C)C[C@H](O)[C@H]2C(=O)O [Free AmB, Amphotericin B] | 1.01 ± 0.10 | 3.72 ± 0.04
2 |  |  |  |  | 0.1 | 0.04 to 0.07 | 0.1 | 70.7 ± 7.3 | 0.1 | 39.8 ± 0.1 | Nc1nc(=O)[nH]cc1F [5-FC, 5-fluorocytosine] |  | 
